Earlier results in patent US4788322A, “Process for preparing ACHPA” (Merck & Co., Inc., priority 1987, dated 1988).
Square brackets hold non-standard residues; d marks the D form. Peptide text beside a SMILES is read from it. * marks the point of attachment. Sta = CC(C)C[C@H](N)[C@@H](O)CC(=O)O; Isovaleryl = CC(C)CC(=O)*

Tested on: hog renin
Settings: after injection of hog renin into nephrectomized rats; Gross et al., Science 1972

In the case of `CC(C)CC(=O)N[C@H](C(=O)N[C@H](C(=O)N[C@@H](CC(C)C)[C@@H](O)CC(=O)N[C@@H](C)C(=O)N[C@@H](CC(C)C)[C@@H](O)CC(=O)O)C(C)C)C(C)C` [pepstatin] (Isovaleryl-VV[Sta]A[Sta]-OH), the “blood pressure in vivo” value is listed as “reduces blood pressure”.
